# From patent publication US20220226280A1, “COMPOSITIONS AND METHODS FOR INCREASED GLUCOSE UPTAKE AND FAT METABOLISM” (Board of Supervisors of Louisiana State University and …, priority 2017, published 2022)
# Read-outs that look alike come from different tables or passages of the source.
# Columns and labels:
# HEK293 cells = conditions: cited from earlier work
# [1] = cited from earlier work
# GLUT4 mRNA = GLUT4 mRNA induction in differentiated human adipocytes (Taqman RT-PCR); assay type: cell-based; conditions: human subcutaneous adipocyte cultures
# Description: (§1) Gene expression was analyzed using Taqman RT-PCR and values are expressed as fold increase over untreated controls (n=5).
# Gene expression was analyzed using Taqman RT-PCR and values are expressed as fold increase over untreated controls. Naringenin and Menthol v. Control: p=0.008, Naringenin and Menthol v. Naringenin: p=0.01. Naringenin and Menthol v. Menthol: p<0.001, Naringenin v. Control: p>0.05, Menthol v. Control: p>0.05.
# (§2) UCP1 mRNA levels increased 4-8 fold in human subcutaneous adipocytes treated from 4-7 days with Naringenin at a concentration of 10 μM, the Cmax detected in human plasma after intake of citrus beverages (FIG. 1) (Kanaze, F. I., et al., Eur J Clin Nutr, 2007 61(4):472-7).
# [2] = tested on: carnitine palmitoyltransferase 1 (CPT-1); experiment: CPT-1 induction in human subcutaneous adipocyte cultures; assay type: cell-based
# Description: as §1, §2
# UCP1 mRNA = UCP1 mRNA induction in differentiated human adipocytes (Taqman RT-PCR); assay type: cell-based; conditions: for UCP1 expression in comparison with flavonoid alone: flavonoid 5 μM combined with 20 μM menthol, 7 day treatment
# Description: as §1
# Gene expression was analyzed using Taqman RT-PCR and values are expressed as fold increase over untreated controls.
# To determine the lowest concentrations with efficacy to induce UCP1 mRNA in human adipocytes over a 7 day time period, cells were treated with multiple concentrations of menthol combined with naringenin at 5 μM (FIG. 6).
# TRPM8 receptor = TRPM8 receptor expression in human adipocytes; assay type: cell-based; conditions: 10 μM Naringenin alone
# [3] = cited from earlier work; remark: listed apart in the source
# Pgc-1α = Pgc-1α expression in human subcutaneous adipocytes; assay type: cell-based; conditions: Naringenin 10 μM
# Description: as §1, §2
# TRPM8 = TRPM8 (Homo sapiens, UniProt Q7Z2W7); conditions: cited from earlier work
# UCP1 expression [4] = conditions: cited from earlier work
# Ucp1 expression [5] = conditions: brown adipocytes from mice; cited from earlier work
# Chain of TRPM8 (Q7Z2W7 whole entry, species assumed): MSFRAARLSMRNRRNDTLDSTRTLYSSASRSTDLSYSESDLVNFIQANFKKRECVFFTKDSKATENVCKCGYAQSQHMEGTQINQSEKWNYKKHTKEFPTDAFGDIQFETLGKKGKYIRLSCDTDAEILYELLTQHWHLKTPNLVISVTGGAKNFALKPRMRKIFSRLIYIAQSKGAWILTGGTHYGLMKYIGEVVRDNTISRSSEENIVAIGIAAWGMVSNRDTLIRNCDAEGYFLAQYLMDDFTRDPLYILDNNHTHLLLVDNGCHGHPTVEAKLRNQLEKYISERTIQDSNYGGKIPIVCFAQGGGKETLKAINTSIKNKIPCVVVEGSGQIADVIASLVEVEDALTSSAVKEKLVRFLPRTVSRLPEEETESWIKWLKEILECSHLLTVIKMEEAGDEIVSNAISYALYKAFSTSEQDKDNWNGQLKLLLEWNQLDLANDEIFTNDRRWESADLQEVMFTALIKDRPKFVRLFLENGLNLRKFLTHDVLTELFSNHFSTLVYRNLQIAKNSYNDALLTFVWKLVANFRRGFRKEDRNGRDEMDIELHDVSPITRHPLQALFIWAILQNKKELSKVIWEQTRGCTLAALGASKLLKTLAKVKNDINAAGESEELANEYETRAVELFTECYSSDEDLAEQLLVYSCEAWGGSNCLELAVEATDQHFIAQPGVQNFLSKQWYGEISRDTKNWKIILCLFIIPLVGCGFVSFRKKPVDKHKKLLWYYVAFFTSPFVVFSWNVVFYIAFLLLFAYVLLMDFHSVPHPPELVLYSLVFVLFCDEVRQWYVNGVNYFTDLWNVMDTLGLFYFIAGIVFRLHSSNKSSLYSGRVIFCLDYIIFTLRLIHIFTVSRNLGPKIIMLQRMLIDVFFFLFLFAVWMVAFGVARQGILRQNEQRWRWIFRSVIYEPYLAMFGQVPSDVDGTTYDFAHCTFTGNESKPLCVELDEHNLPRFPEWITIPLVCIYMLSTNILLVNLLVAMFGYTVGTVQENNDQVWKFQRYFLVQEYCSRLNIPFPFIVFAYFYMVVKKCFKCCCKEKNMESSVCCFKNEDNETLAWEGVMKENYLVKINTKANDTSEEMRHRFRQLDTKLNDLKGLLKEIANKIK
structure (smiles),measurement,setting,value
"O=C1C[C@@H](c2ccc(O)cc2)Oc2cc(O)cc(O)c21 (stereo in doubt) [Naringenin, 2,3-dihydro-5,7-dihydroxy-2-(4-hydroxyphenyl)-4H-1-benzopyran-4-one]",toxicity to cells (maximum concentration),HEK293 cells,12.5 µM
same,Cmax,"[1]; human plasma/serum after intake of citrus beverages, read-out: Cmax",10 µM
same,induction of brown adipocyte marker GLUT4,GLUT4 mRNA,significantly induces
same,induction of brown adipocyte marker CPT-1,[2],significantly induces
same,UCP1 mRNA levels increased,"UCP1 mRNA; Naringenin 10 μM, 4-7 days, human subcutaneous adipocytes",4-8 fold
same,induction of brown adipocyte marker UCP1,UCP1 mRNA; human subcutaneous adipocyte cultures,significantly induces
same,increase in TRPM8 receptor expression,TRPM8 receptor,4 fold
same,solubility,[3]; aqueous solutions,sparingly soluble
same,solubility,"[3]; ethanol, ether, oils (e.g., olive oil or citrus oil) and supercritical carbon dioxide",soluble
same,increase in transcriptional activator Pgc-1α,Pgc-1α,No increases were observed
CC12CCC(CC1)C(C)(C)O2 [Eucalyptol],UCP1 mRNA expression versus naringenin alone,"UCP1 mRNA; eucalyptol at 100 μM and 200 μM in combination with Naringenin 5 μM, 7 d",did not increase UCP1 mRNA expression above the level observed with naringenin alone
COc1ccc([C@@H]2CC(=O)c3c(O)cc(O)cc3O2)cc1O [Hesperetin],UCP1 expression in comparison with flavonoid alone,UCP1 mRNA,No statistical difference
O=C1NC(c2cccc([N+](=O)[O-])c2)=CCN1c1ccccc1O [Icilin],synergy for UCP1 mRNA induction,"UCP1 mRNA; 0.5 μM icilin combined with Naringenin 5 μM, 7 d",did not display synergy
same,EC50,TRPM8; TRPM8 activator,~500 nM
same,potency relative to menthol,TRPM8,at least 100 fold
CC1CCC(C(C)C)C(O)C1 (stereo not drawn) [Menthol],Cmax,"[1]; menthol, read-out: Cmax",20 µM
same,Cmax,"[1]; menthol, read-out: high end of serum Cmax",30 µM
same,increase in UCP1 expression,UCP1 expression [4]; Menthol 100 μM overnight,1.5 fold
same,increase in UCP1 expression,"UCP1 expression [4]; Menthol 100 μM, cells exposed to 26° C.",40 fold
same,Ucp1 expression,Ucp1 expression [5],concentration-dependent increase
same,induction of UCP1 or other beige markers,"UCP1 mRNA; Menthol alone, human adipocyte cultures",No induction
COc1cc(CN(CCN)C(=O)OC(C)c2ccccc2)ccc1OCc1ccccc1 (stereo not drawn) [PBMC],Naringenin-stimulated UCP1 expression in presence of inhibitor,UCP1 mRNA; inhibitor during 5 μM Naringenin treatment for 3 days,prevented Naringenin-stimulated UCP1 expression
O=c1cc(-c2ccc(O)cc2)oc2cc(O)cc(O)c12 [apigenin],UCP1 expression in comparison with flavonoid alone,UCP1 mRNA,No statistical difference
O=c1c(O)c(-c2ccc(O)c(O)c2)oc2cc(O)cc(O)c12 [quercetin],UCP1 expression in comparison with flavonoid alone,UCP1 mRNA,No statistical difference
